According to patent US10670605B2, “Cysteine reactive probes and uses thereof” (The Scripps Research Institute, priority 2015, dated 2020):
Blank lines part the entries; values can stand above or below the molecule they belong to.

Columns and labels:
Assay in all cases: Competitive isoTOP-ABPP, cell lysates;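 as to isoTOP-ABPP reactivity profile ratio, P63244 C182: Heavy/light ratio DMSO over fragment-treated so higher means more cysteine engagement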;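 as to isoTOP-ABPP reactivity profile ratio, P68036 C86: Heavy/light ratio DMSO over fragment-treated so higher means more cysteine engagement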
Type in all cases: binding
UCHL3 C95 (P15374) = biological target: T1, UCHL3 C95 (P15374) (Homo sapiens, UniProt P15374); details: for isoTOP-ABPP reactivity profile ratio, P15374_C95: 500 μm
T1 sequence (P15374 1-230): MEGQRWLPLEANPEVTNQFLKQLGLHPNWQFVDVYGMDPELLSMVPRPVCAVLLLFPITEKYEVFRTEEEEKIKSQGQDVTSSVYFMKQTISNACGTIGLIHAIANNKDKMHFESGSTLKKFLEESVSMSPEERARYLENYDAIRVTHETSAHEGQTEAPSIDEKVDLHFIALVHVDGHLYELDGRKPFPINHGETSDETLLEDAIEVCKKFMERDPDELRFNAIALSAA

MGMT C150 (P16455) = biological target: T2, MGMT C150 (P16455) (Homo sapiens, UniProt P16455)
T2 sequence (P16455 1-207): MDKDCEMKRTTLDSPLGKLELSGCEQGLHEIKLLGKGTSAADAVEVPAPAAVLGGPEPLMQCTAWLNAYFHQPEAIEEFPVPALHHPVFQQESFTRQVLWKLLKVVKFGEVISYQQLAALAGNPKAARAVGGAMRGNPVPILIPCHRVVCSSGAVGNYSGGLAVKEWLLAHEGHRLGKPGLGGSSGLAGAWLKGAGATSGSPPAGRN

UBE2L3 C86 (P68036) = UBE2L3 C86 (P68036) (Homo sapiens, UniProt P68036); details: for isoTOP-ABPP reactivity profile ratio, P68036_C86: 500 μm;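 as to isoTOP-ABPP reactivity profile ratio, P68036 C86: Heavy/light ratio DMSO over fragment-treated so higher means more cysteine engagement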
GNB2L1 C182 (P63244) = GNB2L1 C182 (P63244) (Homo sapiens, UniProt P63244); details: for isoTOP-ABPP reactivity profile ratio, P63244_C182: 500 μm;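 as to isoTOP-ABPP reactivity profile ratio, P63244 C182: Heavy/light ratio DMSO over fragment-treated so higher means more cysteine engagement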
PCK2 C306 (Q16822) = biological target: T3, PCK2 C306 (Q16822) (Homo sapiens, UniProt Q16822); details: for isoTOP-ABPP reactivity profile ratio, Q16822_C306: 500 μm, in-vitro_ramos_231
T3 sequence (Q16822 33-640): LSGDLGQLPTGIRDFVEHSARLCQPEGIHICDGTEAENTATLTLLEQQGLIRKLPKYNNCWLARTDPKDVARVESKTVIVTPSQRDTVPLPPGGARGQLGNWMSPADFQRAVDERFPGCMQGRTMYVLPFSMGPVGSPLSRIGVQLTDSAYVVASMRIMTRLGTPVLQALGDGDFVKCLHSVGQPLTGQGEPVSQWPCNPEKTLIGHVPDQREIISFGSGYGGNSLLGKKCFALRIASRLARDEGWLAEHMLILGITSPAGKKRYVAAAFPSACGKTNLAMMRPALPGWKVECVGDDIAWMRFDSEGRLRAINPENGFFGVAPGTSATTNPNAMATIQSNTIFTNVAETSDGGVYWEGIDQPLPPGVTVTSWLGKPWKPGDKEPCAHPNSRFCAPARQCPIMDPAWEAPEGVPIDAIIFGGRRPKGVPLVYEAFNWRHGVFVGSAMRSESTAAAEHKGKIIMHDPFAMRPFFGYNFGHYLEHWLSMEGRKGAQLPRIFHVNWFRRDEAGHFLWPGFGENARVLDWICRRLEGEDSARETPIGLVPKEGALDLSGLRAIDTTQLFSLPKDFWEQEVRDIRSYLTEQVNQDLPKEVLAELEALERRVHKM

PRMT1 C109 (Q99873) = PRMT1 C109 (Q99873) (Homo sapiens, UniProt Q99873); details: for isoTOP-ABPP reactivity profile ratio, Q99873_C109: 500 μm
SAMHD1 C522 (Q9Y3Z3) = SAMHD1 C522 (Q9Y3Z3) (Homo sapiens, UniProt Q9Y3Z3); details: for isoTOP-ABPP reactivity profile ratio, Q9Y3Z3_C522: 500 μm, in-vitro_ramos_231
ZNF217 C286 (O75362) = ZNF217 C286 (O75362) (Homo sapiens, UniProt O75362); details: for isoTOP-ABPP reactivity profile ratio, O75362_C286: 500 μm
STAT3 C259 (P40763) = STAT3 C259 (P40763) (Homo sapiens, UniProt P40763); details: 500 μm in-vitro ramos_231
DCUN1D1 C115 (Q96GG9) = DCUN1D1 C115 (Q96GG9) (Homo sapiens, UniProt Q96GG9); details: 500 μm in-vitro ramos

SMILES: CC(Cl)C(=O)Nc1cc(C(F)(F)F)cc(C(F)(F)F)c1 (stereo not drawn) [compound 25]
- isoTOP-ABPP ratio (reactivity profile), P15374_C95 (UCHL3 C95 (P15374); 500 μm in-vitro ramos_231): 0.8
- isoTOP-ABPP ratio (reactivity profile), P68036_C86 (UBE2L3 C86 (P68036); 500 μm in-vitro ramos_231): 1.5
- isoTOP-ABPP ratio (reactivity profile), P63244_C182 (GNB2L1 C182 (P63244); 500 μm in-vitro ramos_231): 1.2
- isoTOP-ABPP ratio (reactivity profile), Q16822_C306 (PCK2 C306 (Q16822); 500 μm in-vitro ramos_231): 0.8
- isoTOP-ABPP ratio (reactivity profile), P40763_C259 (STAT3 C259 (P40763)): 0.9
- isoTOP-ABPP ratio (reactivity profile), Q99873_C109 (PRMT1 C109 (Q99873); 500 μm in-vitro ramos_231): 1.0
- isoTOP-ABPP ratio (reactivity profile), O75362_C286 (ZNF217 C286 (O75362); 500 μm in-vitro ramos_231): 20.0

SMILES: O=C(/C=C/c1ccccc1)Nc1cc(C(F)(F)F)cc(C(F)(F)F)c1 [compound 26]
- isoTOP-ABPP ratio (reactivity profile), Q96GG9_C115 (DCUN1D1 C115 (Q96GG9)): 0.9
- isoTOP-ABPP ratio (reactivity profile), P15374_C95 (UCHL3 C95 (P15374); 500 μm in-vitro ramos): 0.8
- isoTOP-ABPP ratio (reactivity profile), P16455_C150 (MGMT C150 (P16455); 500 μm in-vitro ramos): 0.9
- isoTOP-ABPP ratio (reactivity profile), P68036_C86 (UBE2L3 C86 (P68036); 500 μm in-vitro ramos): 0.7
- isoTOP-ABPP ratio (reactivity profile), P63244_C182 (GNB2L1 C182 (P63244); 500 μm in-vitro ramos): 1.0
- isoTOP-ABPP ratio (reactivity profile), Q99873_C109 (PRMT1 C109 (Q99873); 500 μm in-vitro ramos): 0.9
- isoTOP-ABPP ratio (reactivity profile), Q9Y3Z3_C522 (SAMHD1 C522 (Q9Y3Z3); 500 μm in-vitro ramos): 0.9

Further lines, results first:

- isoTOP-ABPP reactivity profile ratio, P15374_C95 (UCHL3 C95 (P15374); in-vitro_ramos): 20.0
- isoTOP-ABPP reactivity profile ratio, P16455_C150 (MGMT C150 (P16455); 500 μm, in-vitro_ramos): 20.0
- isoTOP-ABPP reactivity profile ratio, P68036_C86 (UBE2L3 C86 (P68036); in-vitro_ramos): 1.7
- isoTOP-ABPP reactivity profile ratio, P68036_C86 (UBE2L3 C86 (P68036); in-vitro_ramos_231): 1.1
- isoTOP-ABPP reactivity profile ratio, P63244_C182 (GNB2L1 C182 (P63244); in-vitro_ramos): 0.9
- isoTOP-ABPP reactivity profile ratio, P63244_C182 (GNB2L1 C182 (P63244); in-vitro_ramos_231): 0.9
- isoTOP-ABPP reactivity profile ratio, Q16822_C306 (PCK2 C306 (Q16822)): 3.3
- isoTOP-ABPP reactivity profile ratio, Q99873_C109 (PRMT1 C109 (Q99873); in-vitro_ramos): 1.2
- isoTOP-ABPP reactivity profile ratio, Q99873_C109 (PRMT1 C109 (Q99873); in-vitro_ramos_231): 1.4
- isoTOP-ABPP reactivity profile ratio, Q9Y3Z3_C522 (SAMHD1 C522 (Q9Y3Z3)): 2.2
- isoTOP-ABPP reactivity profile ratio, O75362_C286 (ZNF217 C286 (O75362); in-vitro_ramos): 1.2
- isoTOP-ABPP reactivity profile ratio, O75362_C286 (ZNF217 C286 (O75362); in-vitro_ramos_231): 1.9
SMILES: COc1cc(NC(=O)CCl)cc(OC)c1 [compound 43]

- isoTOP-ABPP reactivity profile ratio, P15374_C95 (UCHL3 C95 (P15374); in-vitro_ramos_231): 1.3
- isoTOP-ABPP reactivity profile ratio, P63244_C182 (GNB2L1 C182 (P63244); in-vitro_ramos_231): 0.8
- isoTOP-ABPP reactivity profile ratio, Q16822_C306 (PCK2 C306 (Q16822)): 2.7
- isoTOP-ABPP reactivity profile ratio, Q99873_C109 (PRMT1 C109 (Q99873); in-vitro_ramos_231): 1.0
SMILES: O=C(CCl)N1CCc2cc(Br)ccc21 [compound 50]

- isoTOP-ABPP reactivity profile ratio, P15374_C95 (UCHL3 C95 (P15374); in-vitro_ramos_231): 0.8
- isoTOP-ABPP reactivity profile ratio, Q99873_C109 (PRMT1 C109 (Q99873); in-vitro_ramos_231): 0.8
- isoTOP-ABPP reactivity profile ratio, Q9Y3Z3_C522 (SAMHD1 C522 (Q9Y3Z3)): 0.8
SMILES: O=C(CCl)NC1C(O)OC(CO)C(O)C1O (mixture of isomers) [compound 44]
